# Data: patent US20230225990A1, “DIMETHYL SULFONE FOR TREATMENT OF CHRONICALLY HEAT STRESSED POULTRY” (Evonik Operations GmbH, priority 2020, published 2023)
# Marks after values point to notes of the source that are not given here.
# Experiments:
# Type in all cases: in vivo, broiler chickens (Ross 308)
# [1] = test system: male broilers subjected to chronic cyclic heat stress; assay: Rectal temperature and panting frequency during heat stress
# Description: The finisher period started at d-21, and the chronic cyclic heat stress (HS) protocol was applied from d-24 until d-39. Starting from d-24, the temperature was increased from 22° C. to 34° C. for 6 hours per day (from 9:00 to 15:00) with relative air humidity (RH) between 52 and 58%. From 8:00 to 9:00, the temperature was increased from 22° C. to 34° C., and from 15:00 to 16:00, the temperature was decreased from 34° C. to 22° C. The rest of the day the temperature was 22° C. The room was equipped with heaters with thermostats, and air circulators to enable the desired temperature and RH to be maintained, providing sufficient ventilation and air conditions. RH was adjusted with manual spraying of water on stable walls, periodically. The temperature and the RH were recorded at 10-min intervals with a dry bulb thermo-hygrometer (Escort RH iLog, Escort Verification Technologies Inc., Buchanan, United States).
# Rectal temperature and panting frequency (video analyses) (for 2 selected birds per pen on 3 days: d-24, d-31 and d-38, measured after 4 h of heat stress that day)
# [2] = test system: male broilers subjected to chronic cyclic heat stress; assay: Carcass yield and portions on d-40; conditions: d-40 after overnight fasting
# Text: Sampling of two birds per pen (with weight close to average weight of the pen) on d-40 after overnight fasting (no heat stress that day) • Carcass yield, breast percentage, thigh percentage, drumstick percentage and abdominal fat • Carcass yield: with skin, bled, without internal organs, without feet, without head, without neck, without abdominal fat; relative to bird body weight • Breast percentage: skinless, boneless; relative to bird body weight • Thigh percentage: with skin, with bone; relative to bird body weight • Drumstick percentage: with skin, with bone; relative to bird body weight • Abdominal fat percentage: abdominal fat; relative to bird body weight • Breast meat quality • Scoring of breast myopathies (wooden breast and white striping) • Wooden breast: normal, 0; mild, 1 and severe, 2 • White striations: normal, 0; mild, 1, and severe, 2 • pH and colour, both at time 0 h and 24 h (after sampling at time 0 h, breasts are stored at 4° C. until 24 h) • Drip loss, determined for periods 0-24 h and for period 0-72 h (after sampling at time 0 h, breasts are stored at 4° C. until 72 h, and weight without exuded water at 24 h and 72 h) • Press loss, determined at 24 h (after sampling at time 0 h, breasts are stored at 4° C. until 24 h, prior to determine press loss) • Oxidative stability (TBARS after simulated retail display)
# [3] = test system: male broilers subjected to chronic cyclic heat stress; assay: Parameters in liver of birds sampled at d-23, d-25 and d-39
# Description: (§1) Sampling of one bird per pen (with weight close to average weight of the pen) on d-23, d-25 and on d-39 (on d-25 and d-39, sampling starts after >3 h of heat stress that day; 108 birds in total) • malondialdehyde, HSP70 (Chicken Heat Shock Protein 70, Hsp-70 ELISA Kit) Cusabio Code CSB-E11196Ch), HSP90 (Chicken Heat Shock Protein 90, HSP-90 ELISA Kit; Cusabio Code CSB-E12873C), GPx, SOD in plasma; GSH/GSSG in erythrocytes; and T3, T4 and nitric oxide in serum • Breast muscle and liver: malondialdehyde, AOX (GPx, SOD), GSH/GSSG
# (§2) For physiological measurements, time of sampling (representing the number of minutes between the beginning of heat stress and the precise moment of sampling of the bird that day), if appropriate, was included in the model as a covariable if significant as well. Orthogonal contrasts were applied to test for linear and quadratic effects upon incremental levels of DMS supplementation in the diet. Means are given as estimated marginal means (least square means). Means were separated using the Tukey post-hoc test. Differences were considered significant when p<0.05 and as a trend for significance when p<0.1.
# [4] = test system: male broilers subjected to chronic cyclic heat stress; assay: Parameters in breast muscle of birds sampled at d-23, d-25 and d-39
# Description: as §1, §2
# [5] = 0.1% DMS in diet (T2), Total, all days
# [6] = 0.1% DMS in diet (T2), d-24, during heat stress
# [7] = 0.1% DMS in diet (T2), d-31, during heat stress
# [8] = 0.1% DMS in diet (T2), d-38, during heat stress
# [9] = 0.2% DMS in diet (T3), Total, all days
# [10] = 0.2% DMS in diet (T3), d-24, during heat stress
# [11] = 0.2% DMS in diet (T3), d-31, during heat stress
# [12] = 0.2% DMS in diet (T3), d-38, during heat stress
smiles,measurement,setting,value
"CS(C)(=O)=O [DMS, dimethyl sulfone]",Panting,[1]; [5],141 #/min
same,Rectal temperature,[1]; [5],42.6^ab ° C.
same,Panting,[1]; [6],119^ab #/min
same,Rectal temperature,[1]; [6],42.3 °C
same,Panting,[1]; [7],158 #/min
same,Rectal temperature,[1]; [7],42.9 °C
same,Panting,[1]; [8],147 #/min
same,Rectal temperature,[1]; [8],42.7 °C
same,Panting,[1]; [9],137 #/min
same,Rectal temperature,[1]; [9],42.5^b ° C.
same,Panting,[1]; [10],112^b #/min
same,Rectal temperature,[1]; [10],42.3 °C
same,Panting,[1]; [11],143 #/min
same,Rectal temperature,[1]; [11],42.6 °C
same,Panting,[1]; [12],152 #/min
same,Rectal temperature,[1]; [12],42.6 °C
same,Body weight,[2]; 0.1% DMS in diet (T2),3010 g
same,Body weight,[2]; 0.2% DMS in diet (T3),2980 g
same,GSSG/GSH,"[3]; 0.1% DMS in diet (T2), d-23",0.016
same,Glutathione (GSH),"[3]; 0.1% DMS in diet (T2), d-23",4.69 µmol/g
same,Glutathione peroxidase,"[3]; 0.1% DMS in diet (T2), d-23",17.0 U/g
same,Malondialdehyde,"[3]; 0.1% DMS in diet (T2), d-23",43.9 nmol/g
same,Oxidized glutathione (GSSG),"[3]; 0.1% DMS in diet (T2), d-23",0.077 µmol/g
same,Super oxide dismutase,"[3]; 0.1% DMS in diet (T2), d-23",332 U/g
same,GSSG/GSH,"[3]; 0.1% DMS in diet (T2), d-25",0.017
same,Glutathione (GSH),"[3]; 0.1% DMS in diet (T2), d-25",4.26 µmol/g
same,Glutathione peroxidase,"[3]; 0.1% DMS in diet (T2), d-25",17.8 U/g
same,Malondialdehyde,"[3]; 0.1% DMS in diet (T2), d-25",48.6 nmol/g
same,Oxidized glutathione (GSSG),"[3]; 0.1% DMS in diet (T2), d-25",0.070 µmol/g
same,Super oxide dismutase,"[3]; 0.1% DMS in diet (T2), d-25",292 U/g
same,GSSG/GSH,"[3]; 0.1% DMS in diet (T2), d-39",0.027
same,Glutathione (GSH),"[3]; 0.1% DMS in diet (T2), d-39",3.74 µmol/g
same,Glutathione peroxidase,"[3]; 0.1% DMS in diet (T2), d-39",17.5 U/g
same,Malondialdehyde,"[3]; 0.1% DMS in diet (T2), d-39",46.4 nmol/g
same,Oxidized glutathione (GSSG),"[3]; 0.1% DMS in diet (T2), d-39",0.093 µmol/g
same,Super oxide dismutase,"[3]; 0.1% DMS in diet (T2), d-39",356 U/g
same,GSSG/GSH,"[3]; 0.2% DMS in diet (T3), d-23",0.015
same,Glutathione (GSH),"[3]; 0.2% DMS in diet (T3), d-23",5.04 µmol/g
same,Glutathione peroxidase,"[3]; 0.2% DMS in diet (T3), d-23",16.9 U/g
same,Malondialdehyde,"[3]; 0.2% DMS in diet (T3), d-23",44.6 nmol/g
same,Oxidized glutathione (GSSG),"[3]; 0.2% DMS in diet (T3), d-23",0.076 µmol/g
same,Super oxide dismutase,"[3]; 0.2% DMS in diet (T3), d-23",317 U/g
same,GSSG/GSH,"[3]; 0.2% DMS in diet (T3), d-25",0.017
same,Glutathione (GSH),"[3]; 0.2% DMS in diet (T3), d-25",4.14 µmol/g
same,Glutathione peroxidase,"[3]; 0.2% DMS in diet (T3), d-25",17.9 U/g
same,Malondialdehyde,"[3]; 0.2% DMS in diet (T3), d-25",49.1 nmol/g
same,Oxidized glutathione (GSSG),"[3]; 0.2% DMS in diet (T3), d-25",0.069 µmol/g
same,Super oxide dismutase,"[3]; 0.2% DMS in diet (T3), d-25",289 U/g
same,GSSG/GSH,"[3]; 0.2% DMS in diet (T3), d-39",0.025
same,Glutathione (GSH),"[3]; 0.2% DMS in diet (T3), d-39",3.94 µmol/g
same,Glutathione peroxidase,"[3]; 0.2% DMS in diet (T3), d-39",18.6 U/g
same,Malondialdehyde,"[3]; 0.2% DMS in diet (T3), d-39",48 nmol/g
same,Oxidized glutathione (GSSG),"[3]; 0.2% DMS in diet (T3), d-39",0.097 µmol/g
same,Super oxide dismutase,"[3]; 0.2% DMS in diet (T3), d-39",346 U/g
same,Glutathione (GSH),"[4]; 0.1% DMS in diet (T2), d-23",1.00 µmol/g
same,Glutathione peroxidase,"[4]; 0.1% DMS in diet (T2), d-23",0.39 U/g
same,Malondialdehyde,"[4]; 0.1% DMS in diet (T2), d-23",4.72 nmol/g
same,Super oxide dismutase,"[4]; 0.1% DMS in diet (T2), d-23",29.7 U/g
same,Glutathione (GSH),"[4]; 0.1% DMS in diet (T2), d-25",1.30^ab μmol/g
same,Glutathione peroxidase,"[4]; 0.1% DMS in diet (T2), d-25",0.42 U/g
same,Malondialdehyde,"[4]; 0.1% DMS in diet (T2), d-25",4.6 nmol/g
same,Super oxide dismutase,"[4]; 0.1% DMS in diet (T2), d-25",27.3 U/g
same,Glutathione (GSH),"[4]; 0.1% DMS in diet (T2), d-39",1.46 µmol/g
same,Glutathione peroxidase,"[4]; 0.1% DMS in diet (T2), d-39",0.46 U/g
same,Malondialdehyde,"[4]; 0.1% DMS in diet (T2), d-39",5.23 nmol/g
same,Super oxide dismutase,"[4]; 0.1% DMS in diet (T2), d-39",27.4 U/g
same,Glutathione (GSH),"[4]; 0.2% DMS in diet (T3), d-23",1.10 µmol/g
same,Glutathione peroxidase,"[4]; 0.2% DMS in diet (T3), d-23",0.38 U/g
same,Malondialdehyde,"[4]; 0.2% DMS in diet (T3), d-23",4.5 nmol/g
same,Super oxide dismutase,"[4]; 0.2% DMS in diet (T3), d-23",32.6 U/g
same,Glutathione (GSH),"[4]; 0.2% DMS in diet (T3), d-25",1.39^a μmol/g
same,Glutathione peroxidase,"[4]; 0.2% DMS in diet (T3), d-25",0.44 U/g
same,Malondialdehyde,"[4]; 0.2% DMS in diet (T3), d-25",4.5 nmol/g
same,Super oxide dismutase,"[4]; 0.2% DMS in diet (T3), d-25",28.1 U/g
same,Glutathione (GSH),"[4]; 0.2% DMS in diet (T3), d-39",1.56 µmol/g
same,Glutathione peroxidase,"[4]; 0.2% DMS in diet (T3), d-39",0.50 U/g
same,Malondialdehyde,"[4]; 0.2% DMS in diet (T3), d-39",5.57 nmol/g
same,Super oxide dismutase,"[4]; 0.2% DMS in diet (T3), d-39",26.2 U/g
